Measurements published in patent US8263590B2, “Pyrimidine derivatives” (priority 2003, dated 2012).
Where two headings read alike, the source gives them in different places.

Key:
[1] = system: Jurkat T human leukemic cell line; assay: In vitro T cell migration assay; assay type: cell-based
Description: Inhibitory activities of FAK inhibitors on the mobility of immune cells are secured by the following in vitro study. […] Cell mobility is appraised through the number of cells migrated into lower chamber by labeling with calcein-AM (Molecular Probes, Netherlands) at 8 μg/ml in HBSS for 1 h.

[2] = system: Mouse mammary carcinoma 4T1 cells; assay: Anchorage-independent tumor cell growth assay; assay type: cell-based
Description: Cells are cultured for 2 h and inhibitors are added at various concentrations in a final concentration of 0.1% DMSO. After 48 h, cell growth is assayed with the cell counting kit-8 (Wako Pure Chemical), which uses a water soluble tetrazolium salt WST8. Twenty μL of the reagent is added into each well and cells are further cultured for 2 h. The optical density is measured at 450 nm.

human FAK kinase domain = human FAK kinase domain (Homo sapiens, UniProt Q05397); assay: FAK assay (FRET, Biot-Y397 peptide)
Chain of human FAK kinase domain (Q05397 384-706): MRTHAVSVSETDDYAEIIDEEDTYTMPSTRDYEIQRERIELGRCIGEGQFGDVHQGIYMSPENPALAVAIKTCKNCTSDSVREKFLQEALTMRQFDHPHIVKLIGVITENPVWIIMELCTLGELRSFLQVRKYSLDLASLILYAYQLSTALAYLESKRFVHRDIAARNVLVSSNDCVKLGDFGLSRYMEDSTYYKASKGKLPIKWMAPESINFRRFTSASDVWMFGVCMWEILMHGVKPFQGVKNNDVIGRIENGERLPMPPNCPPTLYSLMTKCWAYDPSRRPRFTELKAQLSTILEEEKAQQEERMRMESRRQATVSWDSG
Description: All steps are performed in a 96-well black microtiter plate. […] The enzyme reaction is started by addition of 5 μL of 5 μM ATP in water and the mixture is incubated for 3 hours at 37° C. […] The results are shown as percent inhibition of enzyme activity. […] IC50 values are determined by non-linear curve fit analysis using the OriginPro 6.1 program (OriginLab).

FAK (Tyr397) = FAK (Tyr397) (Mus musculus, UniProt P34152); assay: Phosphorylation levels of FAK at Tyr397 (sandwich ELISA, 4T1 cells)
Chain of FAK (Tyr397) (P34152 whole entry): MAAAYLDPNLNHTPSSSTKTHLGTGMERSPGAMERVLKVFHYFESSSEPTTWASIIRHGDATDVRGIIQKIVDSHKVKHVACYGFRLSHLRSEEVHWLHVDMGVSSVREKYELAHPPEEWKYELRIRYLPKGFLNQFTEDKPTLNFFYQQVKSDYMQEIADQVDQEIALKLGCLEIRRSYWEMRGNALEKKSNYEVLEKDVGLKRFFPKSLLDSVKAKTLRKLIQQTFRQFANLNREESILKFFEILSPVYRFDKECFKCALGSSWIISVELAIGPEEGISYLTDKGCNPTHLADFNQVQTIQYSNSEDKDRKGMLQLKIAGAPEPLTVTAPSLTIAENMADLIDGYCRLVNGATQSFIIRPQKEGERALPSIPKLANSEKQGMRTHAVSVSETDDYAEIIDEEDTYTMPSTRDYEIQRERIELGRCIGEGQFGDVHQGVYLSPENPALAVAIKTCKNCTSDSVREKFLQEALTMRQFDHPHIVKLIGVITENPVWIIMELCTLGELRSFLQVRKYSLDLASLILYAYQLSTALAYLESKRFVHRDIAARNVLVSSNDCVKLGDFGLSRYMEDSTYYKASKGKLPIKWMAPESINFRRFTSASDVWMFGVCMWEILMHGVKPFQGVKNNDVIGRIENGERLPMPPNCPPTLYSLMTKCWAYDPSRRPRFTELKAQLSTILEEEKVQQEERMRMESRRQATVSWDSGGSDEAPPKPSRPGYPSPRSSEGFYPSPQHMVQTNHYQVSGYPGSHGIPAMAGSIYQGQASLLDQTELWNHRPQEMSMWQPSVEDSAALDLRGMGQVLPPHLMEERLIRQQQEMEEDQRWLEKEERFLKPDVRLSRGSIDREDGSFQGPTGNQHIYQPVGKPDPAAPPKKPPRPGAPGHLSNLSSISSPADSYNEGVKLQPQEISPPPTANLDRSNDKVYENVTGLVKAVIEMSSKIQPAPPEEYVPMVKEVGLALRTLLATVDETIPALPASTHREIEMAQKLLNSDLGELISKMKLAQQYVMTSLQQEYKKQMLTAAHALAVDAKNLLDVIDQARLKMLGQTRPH
Description: Phosphorylation levels of FAK at Tyr397 is quantified by the sandwich ELISA. Mouse mammary carcinoma 4T1 cells (1×10^5) are plated in wells of 96-well culture plates and incubated with or without various concentrations of inhibitors for 1 h in Dulbecco's modified eagle medium containing 0.5% BSA. The medium is removed and cells are lysed in 200 μL 50 mM Tris-HCl, pH 7.4, containing 1% NP-40, 0.25% sodium deoxycholate, 150 mM NaCl, 1 mM EDTA, 1 mM PMSF, 1 mM Na3VO4, 1 mM NaF, 1 μg/mL aprotinin, 1 μg/mL leupeptin and 1 μg/mL pepstatin. […] The concentration of compound causing 50% reduction of phosphorylation level of FAK is determined.

human IGF-IR = molecular target: T1, human IGF-IR (Homo sapiens, UniProt P08069); assay: IGF-I induced IGF-IR autophosphorylation, cellular Capture ELISA; assay type: cell-based; settings: read-out: IGF-1R IC50
T1 construct: transfected with human IGF-IR cDNA (complete human IGF-IR cDNA); expressed in transfected cells; host or cells: NIH-3T3 mouse fibroblasts
T1 sequence (P08069 31-1367): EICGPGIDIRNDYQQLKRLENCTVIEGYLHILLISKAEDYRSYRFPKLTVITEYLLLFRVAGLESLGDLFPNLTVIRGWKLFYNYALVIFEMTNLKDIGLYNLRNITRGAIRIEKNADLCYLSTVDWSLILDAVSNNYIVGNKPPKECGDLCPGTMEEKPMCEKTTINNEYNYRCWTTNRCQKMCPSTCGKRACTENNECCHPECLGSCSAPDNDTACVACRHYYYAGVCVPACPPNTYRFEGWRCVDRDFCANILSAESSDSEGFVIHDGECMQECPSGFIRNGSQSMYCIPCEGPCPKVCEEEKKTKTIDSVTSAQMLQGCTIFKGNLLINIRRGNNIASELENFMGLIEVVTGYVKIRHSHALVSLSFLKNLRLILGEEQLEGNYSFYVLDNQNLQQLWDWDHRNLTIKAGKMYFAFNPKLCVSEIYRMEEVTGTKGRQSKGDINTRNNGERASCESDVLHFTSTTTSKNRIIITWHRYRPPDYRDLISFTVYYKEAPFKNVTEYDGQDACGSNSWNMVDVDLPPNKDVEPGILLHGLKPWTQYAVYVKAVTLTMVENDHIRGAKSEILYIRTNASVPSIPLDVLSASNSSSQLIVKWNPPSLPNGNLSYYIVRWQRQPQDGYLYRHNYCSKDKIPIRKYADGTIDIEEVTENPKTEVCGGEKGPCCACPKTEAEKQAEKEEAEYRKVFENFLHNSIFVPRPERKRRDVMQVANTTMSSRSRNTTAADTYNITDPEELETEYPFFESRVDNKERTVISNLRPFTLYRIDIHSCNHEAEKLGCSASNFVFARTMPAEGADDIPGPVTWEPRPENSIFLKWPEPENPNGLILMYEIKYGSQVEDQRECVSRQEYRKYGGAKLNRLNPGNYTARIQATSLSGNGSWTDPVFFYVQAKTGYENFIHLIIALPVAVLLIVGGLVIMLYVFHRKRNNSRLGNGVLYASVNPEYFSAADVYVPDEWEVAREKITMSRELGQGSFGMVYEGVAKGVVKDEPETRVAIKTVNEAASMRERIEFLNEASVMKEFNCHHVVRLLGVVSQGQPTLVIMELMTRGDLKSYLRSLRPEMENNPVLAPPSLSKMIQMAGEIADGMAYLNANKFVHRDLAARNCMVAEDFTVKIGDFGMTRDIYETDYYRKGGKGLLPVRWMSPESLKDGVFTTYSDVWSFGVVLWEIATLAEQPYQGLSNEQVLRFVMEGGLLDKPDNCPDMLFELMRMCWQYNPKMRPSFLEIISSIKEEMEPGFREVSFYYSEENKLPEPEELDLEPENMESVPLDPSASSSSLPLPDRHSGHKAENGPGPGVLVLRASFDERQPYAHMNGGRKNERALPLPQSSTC
Description: In this assay the activity of the compounds of the invention against Insulin-like growth factor I (IGF-I) induced autophosphorylation of the IGF-IR is determined.
The cells which overexpress human IGF-IR are cultured in Dulbecco's minimal essential (DMEM) medium, containing 10% Fetal Calf Serum (FCS). […] On day 3 the medium is discarded and the cells are incubated for 24 h in minimal medium (DMEM, containing 0.5% FCS).
The medium is discarded and the cells are washed twice with PBS/O (=Phosphate-Buffered Saline without CaCl2) and lysed for 15 min on ice with 50 μl/well RIPA-buffer [50 mM Tris.HCl, pH=7.2, 120 mM NaCl, 1 mM EDTA, 6 mM EGTA, 1% NP-40, 20 mM NaF, 1 mM benzamidine, 15 mM sodium pyrophosphate, 1 mM Phenyl methyl sulphonyl fluoride (PMSF) and 0.5 mM Na3VO4] and shaken for 10 min using a 96-well plate shaker (=cellular extracts).
The plates are washed twice with 0.05% (v/v) Tween-20 in Phosphate-Buffered Saline (PBS) and once with nanopure H2O. […] After blocking, the plates are washed once with nanopure H2O.
After incubating the extracts and the secondary antibody for 2 h at 4° C., the extracts are discarded, the plates are washed twice with 0.05% (v/v) Tween-20 in PBS and once with nanopure water.
90 μl/well AP substrate (CDP-Star; obtained from Tropix; Cat. No.: MS100RY) are then added and the plates are incubated for 45 min at RT in the dark, followed by measuring AP activity in a Packard Top Count Microplate Scintillation Counter. The IC50 values for the compounds of formula I are calculated via linear regression analysis using the GraphPad Instat program (GraphPad Software, USA).

Compound: CNS(=O)(=O)c1ccccc1Nc1nc(Nc2ccc(OC3CCN(C)CC3)cc2OC)ncc1Br [Example 3-33]
- IC50 [1]: 0.09 µM

Compound: CNC(=O)c1ccccc1Nc1nc(Nc2cc(N3CCN(C(C)=O)CC3)ccc2OC)ncc1Cl [Example 7-30]
- IC50 [1]: 1 µM

Compound: COc1cc(N2CCOCC2)ccc1Nc1ncc(Cl)c(Nc2cccc3c2C(=O)N(C)C3)n1 [Example 12-1, 7-[5-Chloro-2-(2-methoxy-4-morpholin-4-yl-phenylamino)-pyrimidin-4-ylamino]-2-methyl-2,3-dihydro-isoindol-1-one]
- IC50 [1]: 0.22 µM

Compound: CNS(=O)(=O)c1ccccc1Nc1nc(Nc2cc(N(C)C)ccc2OC)ncc1Br [Example 3-64]
- IC50 [1]: 0.21 µM

Compound: CNS(=O)(=O)c1ccccc1Nc1nc(Nc2ccc(N3CCCC(C(N)=O)C3)cc2OC)ncc1Br (stereo not shown) [Example 3-68]
- IC50 [1]: 1 µM

Compound: CCCS(=O)(=O)c1ccccc1Nc1nc(Nc2ccc(N3CCC(O)CC3)cc2OC)ncc1Cl [Example 26-4]
- IC50 [1]: 0.29 µM

Compound: COc1cc(N2CCC[C@@H](C(N)=O)C2)ccc1Nc1ncc(Cl)c(Nc2ccccc2S(=O)(=O)C(C)C)n1 [Example 28-28]
- IC50 [1]: 1 µM

Compound: CNS(=O)(=O)c1ccccc1Nc1nc(Nc2ccc(N3CCN(C)CC3)cc2OC)ncc1Cl [Example 20-6]
- IC50 [1]: 49 µM

Compound: Cc1cc(N2CCOCC2)ccc1Nc1ncc(Cl)c(Nc2ccccc2S(=O)(=O)C(C)C)n1 [Example 28-6]
- IC50 [2]: 0.56 µM

Compound: CNS(=O)(=O)c1ccccc1Nc1nc(Nc2cc(N3CCC(N4CCCCC4)CC3)ccc2OC)ncc1Br [Example 3-69]
- IC50 [1]: 0.58 µM

Compound: COc1cc(N2CCC(N3CCOCC3)CC2)ccc1Nc1ncc(Cl)c(Nc2ccccc2S(=O)(=O)C(C)C)n1 [Example 28-13]
- IC50 [1]: 0.29 µM

Compound: CNS(=O)(=O)c1ccccc1Nc1nc(Nc2cc(N3CCN(C(C)=O)CC3)ccc2OC)ncc1Br [Example 3-34]
- IC50 [1]: 0.13 µM

Compound: CCCS(=O)(=O)c1ccccc1Nc1nc(Nc2cc(N3CCOCC3)ccc2OC)ncc1Cl [Example 26-17]
- IC50 [1]: 0.26 µM

Compound: CC(C)NS(=O)(=O)c1ccccc1Nc1nc(Nc2ccc(OC3CCN(C)CC3)cc2F)ncc1Cl [Example 19-28]
- IC50 [1]: 0.3 µM

Compound: CNS(=O)(=O)c1ccccc1Nc1nc(Nc2ccc(N3CCOCC3)cc2OC)ncc1Cl [Example 20-1]
- IC50 [1]: 0.25 µM

Compound: CNC(=O)c1ccccc1Nc1nc(Nc2ccc(N3CCC(NC)C3)cc2OC)ncc1Cl (stereo not shown) [Example 7-12]
- IC50 [1]: 0.31 µM

Compound: CNC(=O)c1ccccc1Nc1nc(Nc2ccc(N3CCOCC3)cc2OC)ncc1Cl [Example 7A, 2-[5-Chloro-2-(2-methoxy-4-morpholin-4-yl-phenylamino)-pyrimidin-4-ylamino]-N-methyl-benzamide]
- IC50 [1]: 0.04 µM

Compound: CCN1CCN(c2ccc(Nc3ncc(Cl)c(Nc4ccccc4S(=O)(=O)C(C)C)n3)c(OC)c2)CC1 [Example 28-12]
- IC50 [2]: 0.43 µM

Compound: CNS(=O)(=O)c1ccccc1Nc1nc(Nc2ccc(N3CCN(C(C)=O)CC3)cc2OC)ncc1Br [Example 3-46]
- IC50 [1]: 0.3 µM

Compound: CNC(=O)c1cc(N2CCCC2)ccc1Nc1nc(Nc2ccc(N3CCOCC3)cc2OC)ncc1Cl [Example 15-3]
- IC50 (human FAK kinase domain): 0.044 µM
- IC50 (FAK (Tyr397)): 2 µM
- IC50 ([2]; Mus musculus, 4T1): 1.67 µM

Compound: CNS(=O)(=O)c1ccccc1Nc1nc(Nc2ccc(-n3ccnc3C)cc2OC)ncc1Br [Example 3-83]
- IC50 [2]: 0.32 µM

Compound: CCCS(=O)(=O)c1ccccc1Nc1nc(Nc2ccc(N3CCN(C(C)=O)CC3)cc2OC)ncc1Cl [Example 26-2]
- IC50 [1]: 0.09 µM

Compound: CNC1CCN(c2ccc(Nc3ncc(Cl)c(Nc4ccccc4S(=O)(=O)NC(C)C)n3)c(OC)c2)C1 (stereo not shown) [Example 19-1]
- IC50 [1]: 0.29 µM

Compound: CCCS(=O)(=O)c1ccccc1Nc1nc(Nc2ccc(N3CCN(C(C)=O)C(C)(C)C3)cc2OC)ncc1Cl [Example 26-11]
- IC50 [1]: 0.5 µM

Compound: CCNC(=O)c1ccccc1Nc1nc(Nc2ccc(OC3CCN(C)CC3)cc2OC)ncc1Cl [Example 9-6]
- IC50 [1]: 0.3 µM

Compound: CNS(=O)(=O)c1ccccc1Nc1nc(Nc2ccc(N3CCN(C)CC3)cc2OC)ncc1Br [Example 3-39]
- IC50 [1]: 1 µM

Compound: CNS(=O)(=O)c1ccccc1Nc1nc(Nc2cc(OC3CCN(C)CC3)ccc2OC)ncc1Br [Example 3-76]
- IC50 [1]: 0.7 µM

Compound: CCNC(=O)c1ccccc1Nc1nc(Nc2ccc(N3CCC(N4CCCCC4)CC3)cc2OC)ncc1Cl [Example 9-3]
- IC50 (human FAK kinase domain): 0.018 µM
- IC50 (FAK (Tyr397)): 0.1 µM
- IC50 ([2]; Mus musculus, 4T1): 0.37 µM

Compound: COc1cc(N2CCOCC2)ccc1Nc1ncc(Cl)c(Nc2ccccc2C(=O)N(C)C)n1 [Example 14-1]
- IC50 [1]: 0.28 µM

Compound: CNS(=O)(=O)c1ccccc1Nc1nc(Nc2cccc3c2CCCC3)ncc1Br [Example 3-31]
- IC50 [2]: 5 µM

Compound: CNS(=O)(=O)c1ccccc1Nc1nc(Nc2ccc(N3CCC(N4CCCCC4)CC3)cc2OC)ncc1Cl [Example 20-8]
- IC50 (human FAK kinase domain): 0.0068 µM
- IC50 (FAK (Tyr397)): 0.17 µM
- IC50 ([2]; Mus musculus, 4T1): 0.05 µM
- IC50 [1]: 0.29 µM

Compound: CNC(=O)c1ccccc1Nc1nc(Nc2cc(N3CCOCC3)ccc2OC)ncc1Cl [Example 7-6]
- IC50 [1]: 0.25 µM

Compound: CNS(=O)(=O)c1ccccc1Nc1nc(Nc2ccc(N3CCN(C(C)=O)CC3)cc2OC)ncc1Cl [Example 20-2]
- IC50 [1]: 0.75 µM

Compound: COc1cc(N2CCOCC2)ccc1Nc1ncc(Cl)c(Nc2ccccc2S(=O)(=O)NC(C)C)n1 [Example 19-8]
- IC50 [1]: 0.29 µM

Compound: CNS(=O)(=O)c1ccccc1Nc1nc(Nc2cc(OCCN3CCOCC3)ccc2OC)ncc1Br [Example 3-35]
- IC50 [1]: 0.8 µM

Compound: CCC(CC)NS(=O)(=O)c1ccccc1Nc1nc(Nc2ccc(OC3CCN(C)C3)cc2OC)ncc1Cl (stereo not shown) [Example 23-7]
- IC50 (human FAK kinase domain): 0.0021 µM
- IC50 (FAK (Tyr397)): 3 µM
- IC50 ([2]; Mus musculus, 4T1): 0.84 µM

Compound: COc1cc(N2CCC[C@H](C(N)=O)C2)ccc1Nc1ncc(Cl)c(Nc2ccccc2S(=O)(=O)C(C)C)n1 [Example 28-27]
- IC50 [1]: 0.5 µM

Compound: COc1cc(OC2CCN(C)CC2)ccc1Nc1ncc(Cl)c(Nc2ccccc2S(=O)(=O)C(C)C)n1 [Example 28-19]
- IC50 (human FAK kinase domain): 0.0037 µM
- IC50 (FAK (Tyr397)): 0.5 µM
- IC50 ([2]; Mus musculus, 4T1): 0.14 µM

Compound: CC(C)S(=O)(=O)c1ccccc1Nc1nc(Nc2cccc3c2OCC3)ncc1Cl [Example 28-31]
- IC50 [2]: 1.06 µM

Compound: CNS(=O)(=O)c1ccccc1Nc1nc(Nc2ccc(OC3CCN(C)C3)cc2OC)ncc1Cl (stereo not shown) [Example 20-29]
- IC50 (human FAK kinase domain): 0.0061 µM
- IC50 (FAK (Tyr397)): 0.2 µM
- IC50 ([2]; Mus musculus, 4T1): 0.05 µM
- IC50 (human IGF-IR): 0.31 µM

Compound: CCC(CC)NS(=O)(=O)c1ccccc1Nc1nc(Nc2ccc(OC3CCN(C)CC3)cc2OC)ncc1Cl [Example 23-1]
- IC50 [1]: 0.63 µM

Compound: CNS(=O)(=O)c1ccccc1Nc1nc(Nc2cc(N3CCOCC3)ccc2OC)ncc1Br [Example 3-32]
- IC50 [1]: 0.28 µM

Compound: CCNC(=O)c1ccccc1Nc1nc(Nc2ccc(N3CCOCC3)cc2OC)ncc1Cl [Example 9-1]
- IC50 [1]: 0.6 µM

Compound: COc1cc(N2CCC(O)CC2)ccc1Nc1ncc(Cl)c(Nc2ccccc2S(=O)(=O)C(C)C)n1 [Example 28-16]
- IC50 [1]: 0.6 µM

Compound: COc1cc(N2CCOCC2)ccc1Nc1ncc(Cl)c(Nc2ccccc2C(=O)NC(C)C)n1 [Example 14-2]
- IC50 [1]: 1 µM

Compound: CNC(=O)c1ccccc1Nc1nc(Nc2cc(F)ccc2OC)ncc1Br [Example 8-3]
- IC50 [2]: 1 µM

Compound: COc1cc(N2CCC(N(C)C)C2)ccc1Nc1ncc(Cl)c(Nc2ccccc2S(=O)(=O)NC(C)C)n1 (stereo not shown) [Example 19-9]
- IC50 [1]: 0.3 µM

Compound: COc1cc(N2CCN(C)CC2)ccc1Nc1ncc(Cl)c(Nc2ccccc2S(=O)(=O)NC(C)C)n1 [Example 19-5]
- IC50 ([2]; Mus musculus, 4T1): 0.67 µM
- IC50 (human IGF-IR): 0.47 µM
- IC50 [1]: 0.07 µM

Compound: CCC(C)NS(=O)(=O)c1ccccc1Nc1nc(Nc2ccc(N3CCN(C)CC3)cc2OC)ncc1Cl (stereo not shown) [Example 21-1]
- IC50 ([2]; Mus musculus, 4T1): 0.19 µM
- IC50 (human IGF-IR): 0.47 µM

Compound: CNS(=O)(=O)c1ccccc1Nc1nc(Nc2ccc(OC3CCN(C)C3)cc2OC)ncc1Br (stereo not shown) [Example 3-82]
- IC50 (human FAK kinase domain): 0.0048 µM
- IC50 (FAK (Tyr397)): 0.2 µM
- IC50 ([2]; Mus musculus, 4T1): 0.07 µM

Compound: CCCS(=O)(=O)c1ccccc1Nc1nc(Nc2ccc(C(=O)N3CCOCC3)cc2OC)ncc1Cl [Example 26-20]
- IC50 (human FAK kinase domain): 0.01 µM
- IC50 (FAK (Tyr397)): 0.14 µM
- IC50 (human IGF-IR): 0.49 µM

Compound: CCCS(=O)(=O)c1ccccc1Nc1nc(Nc2ccc(N3CCN(C(C)C)CC3)cc2OC)ncc1Cl [Example 26-23]
- IC50 [2]: 0.09 µM
